Results reported in patent US9687479B2, “Multisubstituted aromatic compounds as serine protease inhibitors” (VERSEON CORPORATION, priority 2013, dated 2017).

Tests used:
Human thrombin = Human thrombin (Homo sapiens (Human), UniProt P00734); experiment: Thrombin protease activity inhibition assay (chromogenic substrate S-2238); assay type: biochemical; settings: 3 nM thrombin, 125 μM S-2238, 10 min pre-incubation, RT
Summary of the method: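 Thrombin at 3 nM final in 0.05 M Tris pH 7.4, 0.015 M NaCl, 0.01% PEG-8000, at room temperature; compounds as ten-point three-fold dilutions.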

Human KLKB1 = Human KLKB1 (Homo sapiens (Human), UniProt P03952); experiment: KLKB1 kallikrein activity inhibition assay (chromogenic substrate S-2302); assay type: biochemical; settings: Table B
Summary of the method: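 Enzyme at a final 3 nM was assayed in 0.05 M Tris pH 7.4, 0.01 M NaCl and 0.2% PEG-8000 at room temperature, with compounds as ten-point threefold dilutions.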

Human KLKB1, sequence (P03952 391-638 limits assumed): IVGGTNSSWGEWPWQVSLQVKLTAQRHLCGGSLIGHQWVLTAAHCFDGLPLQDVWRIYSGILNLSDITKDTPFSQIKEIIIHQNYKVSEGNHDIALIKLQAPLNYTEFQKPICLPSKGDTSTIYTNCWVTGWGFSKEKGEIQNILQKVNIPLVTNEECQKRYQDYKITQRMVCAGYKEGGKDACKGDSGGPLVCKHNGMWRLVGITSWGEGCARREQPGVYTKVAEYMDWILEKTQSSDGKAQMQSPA
Human KLKB1, sequence (P03952 20-390 partner limits assumed): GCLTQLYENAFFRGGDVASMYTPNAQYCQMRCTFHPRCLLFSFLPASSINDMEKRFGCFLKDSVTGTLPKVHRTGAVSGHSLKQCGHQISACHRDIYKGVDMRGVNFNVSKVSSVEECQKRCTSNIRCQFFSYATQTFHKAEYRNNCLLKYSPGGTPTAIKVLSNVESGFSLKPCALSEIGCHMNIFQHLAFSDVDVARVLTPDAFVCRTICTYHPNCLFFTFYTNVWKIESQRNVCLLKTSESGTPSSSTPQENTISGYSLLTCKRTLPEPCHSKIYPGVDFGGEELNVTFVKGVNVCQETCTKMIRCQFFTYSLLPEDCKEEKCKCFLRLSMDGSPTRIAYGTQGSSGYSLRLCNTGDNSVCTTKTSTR

| IC50 (Human thrombin) [nM] | IC50 (Human KLKB1) [nM] | Compound |
| --- | --- | --- |
| < 100 | 1000 to 10000 | O=C(c1ccco1)n1nc(-c2cccn(Cc3ccccn3)c2=O)cc1NCc1ccccc1 [Cmpd 238, 3-[5-(benzylamino)-1-[(furan-2-yl)carbonyl]-1H-pyrazol-3-yl]-1-(pyridin-2-ylmethyl)-1,2-dihydropyridin-2-one] |
| < 100 | 100 to 1000 | O=C(c1ccco1)n1nc(-c2cccn(Cc3ccccc3)c2=O)cc1NCc1ccc(Cl)s1 [Cmpd 49, 1-benzyl-3-(5-[(5-chlorothiophen-2-yl)methyl]amino-1-[(furan-2-yl)carbonyl]-1H-pyrazol-3-yl)-1,2-dihydropyridin-2-one] |
| < 100 | 100 to 1000 | O=C(c1ccsc1)n1nc(-c2cccn(Cc3ccsc3)c2=O)cc1NCc1ccc(Cl)s1 [Cmpd 203, 3-(5-[(5-chlorothiophen-2-yl)methyl]amino-1-[(thiophen-3-yl)carbonyl]-1H-pyrazol-3-yl)-1-(thiophen-3-ylmethyl)-1,2-dihydropyridin-2-one] |
| < 100 | 10000 to 100000 | O=C(c1cccs1)n1nc(-c2cccn(Cc3ccoc3)c2=O)cc1NCc1ccc(Cl)s1 [Cmpd 184, 3-(5-[(5-chlorothiophen-2-yl)methyl]amino-1-[(thiophen-2-yl)carbonyl]-1H-pyrazol-3-yl)-1-(furan-3-ylmethyl)-1,2-dihydropyridin-2-one] |
| < 100 | 100 to 1000 | COc1ccc(C(=O)n2nc(-c3cccn(CCN4CCOCC4)c3=O)cc2NCc2ccc(Cl)s2)c(OC)c1 [Cmpd 131, 3-(5-[(5-chlorothiophen-2-yl)methyl]amino-1-[(2,4-dimethoxyphenyl)carbonyl]-1H-pyrazol-3-yl)-1-[2-(morpholin-4-yl)ethyl]-1,2-dihydropyridin-2-one] |
| < 100 | 1000 to 10000 | O=C(c1ccoc1)n1nc(-c2cccn(Cc3cccs3)c2=O)cc1NCc1ccc(Cl)s1 [Cmpd 5, 3-(5-[(5-chlorothiophen-2-yl)methyl]amino-1-[(furan-3-yl)carbonyl]-1H-pyrazol-3-yl)-1-(thiophen-2-ylmethyl)-1,2-dihydropyridin-2-one] |
| 1000 to 10000 | > 100000 | O=c1c(-c2cc(NCc3ccc(Cl)s3)[nH]n2)cccn1Cc1ccccn1 [Cmpd 227, 3-(5-[(5-chlorothiophen-2-yl)methyl]amino-1H-pyrazol-3-yl)-1-(pyridin-2-ylmethyl)-1,2-dihydropyridin-2-one] |
| < 100 | 10000 to 100000 | O=C(c1ccc(N2CCOCC2)cc1)n1nc(-c2cccn(Cc3ccoc3)c2=O)cc1NCc1ccc(Cl)s1 [Cmpd 210, 3-(5-[(5-chlorothiophen-2-yl)methyl]amino-1-[4-(morpholin-4-yl)phenyl]carbonyl-1H-pyrazol-3-yl)-1-(furan-3-ylmethyl)-1,2-dihydropyridin-2-one] |
| < 100 | 100 to 1000 | O=C(c1ccccc1Cl)n1nc(-c2cccn(Cc3ccoc3)c2=O)cc1NCc1ccc(Cl)s1 [Cmpd 244, 3-1-[(2-chlorophenyl)carbonyl]-5-[(5-chlorothiophen-2-yl)methyl]amino-1H-pyrazol-3-yl-1-(furan-3-ylmethyl)-1,2-dihydropyridin-2-one] |
| < 100 | 10000 to 100000 | COCC(C)(C)C(=O)n1nc(-c2cccn(Cc3ccccn3)c2=O)cc1NCc1ccc(Cl)s1 [Cmpd 101, 3-(5-[(5-chlorothiophen-2-yl)methyl]amino-1-(3-methoxy-2,2-dimethylpropanoyl)-1H-pyrazol-3-yl)-1-(pyridin-2-ylmethyl)-1,2-dihydropyridin-2-one] |
| > 100000 | 100 to 1000 | COCCn1cccc(-c2cc(NCc3ccc(Cl)s3)n(C(=O)c3ccco3)n2)c1=O [Cmpd 160, 3-(5-[(5-chlorothiophen-2-yl)methyl]amino-1-[(furan-2-yl)carbonyl]-1H-pyrazol-3-yl)-1-(2-methoxyethyl)-1,2-dihydropyridin-2-one] |
| 100 to 1000 | 10000 to 100000 | O=C(c1ccco1)n1nc(-c2ccc[nH]c2=O)cc1NCc1ccccc1 [Cmpd 237, 3-[5-(benzylamino)-1-[(furan-2-yl)carbonyl]-1H-pyrazol-3-yl]-1,2-dihydropyridin-2-one] |
| < 100 | 1000 to 10000 | COCCn1cccc(-c2cc(NCc3ccc(Cl)s3)n(C(=O)c3ccc(N4CCOCC4)cc3)n2)c1=O [Cmpd 208, 3-(5-[(5-chlorothiophen-2-yl)methyl]amino-1-[4-(morpholin-4-yl)phenyl]carbonyl-1H-pyrazol-3-yl)-1-(2-methoxyethyl)-1,2-dihydropyridin-2-one] |
| < 100 | 1000 to 10000 | Cn1cccc(-c2cc(NCc3ccc(Cl)s3)n(C(=O)C3(COC(=O)C4(CO)CC4)CC3)n2)c1=O [Cmpd 265, 1-[(5-[(5-chlorothiophen-2-yl)methyl]amino-3-(1-methyl-2-oxo-1,2-dihydropyridin-3-yl)-1H-pyrazol-1-yl)carbonyl]cyclopropylmethyl 1-(hydroxymethyl)cyclopropane-1-carboxylate] |
| < 100 | 1000 to 10000 | CC(C)(CO)C(=O)n1nc(-c2cccn(Cc3cccnc3)c2=O)cc1NCc1ccc(Cl)s1 [Cmpd 94, 3-(5-[(5-chlorothiophen-2-yl)methyl]amino-1-(3-hydroxy-2,2-dimethylpropanoyl)-1H-pyrazol-3-yl)-1-(pyridin-3-ylmethyl)-1,2-dihydropyridin-2-one] |
| < 100 | 100 to 1000 | COc1ccccc1C(=O)n1nc(-c2cccn(Cc3cccnc3)c2=O)cc1NCc1ccc(Cl)s1 [Cmpd 140, 3-(5-[(5-chlorothiophen-2-yl)methyl]amino-1-[(2-methoxyphenyl)carbonyl]-1H-pyrazol-3-yl)-1-(pyridin-3-ylmethyl)-1,2-dihydropyridin-2-one] |
| < 100 | 10000 to 100000 | CC(C)(CO)C(=O)n1nc(-c2cccn(Cc3ccco3)c2=O)cc1NCc1ccc(Cl)s1 [Cmpd 93, 3-(5-[(5-chlorothiophen-2-yl)methyl]amino-1-(3-hydroxy-2,2-dimethylpropanoyl)-1H-pyrazol-3-yl)-1-(furan-2-ylmethyl)-1,2-dihydropyridin-2-one] |
| < 100 | 10000 to 100000 | COc1ccc(C(=O)n2nc(-c3cccn(Cc4ccoc4)c3=O)cc2NCc2ccc(Cl)s2)c(OC)c1 [Cmpd 123, 3-(5-[(5-chlorothiophen-2-yl)methyl]amino-1-[(2,4-dimethoxyphenyl)carbonyl]-1H-pyrazol-3-yl)-1-(furan-3-ylmethyl)-1,2-dihydropyridin-2-one] |
| < 100 | 10000 to 100000 | O=C(c1ccoc1)n1nc(-c2cccn(Cc3ccccc3)c2=O)cc1NCc1ccc(Cl)s1 [Cmpd 50, 1-benzyl-3-(5-[(5-chlorothiophen-2-yl)methyl]amino-1-[(furan-3-yl)carbonyl]-1H-pyrazol-3-yl)-1,2-dihydropyridin-2-one] |
| < 100 | 1000 to 10000 | COCCn1cccc(-c2cc(NCc3ccc(Cl)s3)n(C(=O)c3cccc4c3OCCO4)n2)c1=O [Cmpd 109, 3-(5-[(5-chlorothiophen-2-yl)methyl]amino-1-[(2,3-dihydro-1,4-benzodioxin-5-yl)carbonyl]-1H-pyrazol-3-yl)-1-(2-methoxyethyl)-1,2-dihydropyridin-2-one] |
| < 100 | 10000 to 100000 | COCC(C)(C)C(=O)n1nc(-c2cccn(Cc3ccncc3)c2=O)cc1NCc1ccc(Cl)s1 [Cmpd 103, 3-(5-[(5-chlorothiophen-2-yl)methyl]amino-1-(3-methoxy-2,2-dimethylpropanoyl)-1H-pyrazol-3-yl)-1-(pyridin-4-ylmethyl)-1,2-dihydropyridin-2-one] |

| Compound | IC50 (Human thrombin) [nM] | IC50 (Human KLKB1) [nM] |
| --- | --- | --- |
| CC1(C(=O)n2nc(-c3cccn(Cc4ccccc4)c3=O)cc2NCc2ccc(Cl)s2)CCOCC1 [Cmpd 48, 1-benzyl-3-(5-[(5-chlorothiophen-2-yl)methyl]amino-1-[(4-methyloxan-4-yl)carbonyl]-1H-pyrazol-3-yl)-1,2-dihydropyridin-2-one] | < 100 | > 100000 |
| O=C(c1cccs1)n1nc(-c2cccn(Cc3ccccc3)c2=O)cc1NCc1ccc(Cl)s1 [Cmpd 51, 1-benzyl-3-(5-[(5-chlorothiophen-2-yl)methyl]amino-1-[(thiophen-2-yl)carbonyl]-1H-pyrazol-3-yl)-1,2-dihydropyridin-2-one] | < 100 | > 100000 |
| CC(C)(C)C(=O)n1nc(-c2cccn(Cc3ccco3)c2=O)cc1NCc1ccc(Cl)s1 [Cmpd 77, 3-(5-[(5-chlorothiophen-2-yl)methyl]amino-1-(2,2-dimethylpropanoyl)-1H-pyrazol-3-yl)-1-(furan-2-ylmethyl)-1,2-dihydropyridin-2-one] | < 100 | > 100000 |
| CC1(C(=O)n2nc(-c3cccn(Cc4cccs4)c3=O)cc2NCc2ccc(Cl)s2)CCOCC1 [Cmpd 157, 3-(5-[(5-chlorothiophen-2-yl)methyl]amino-1-[(4-methyloxan-4-yl)carbonyl]-1H-pyrazol-3-yl)-1-(thiophen-2-ylmethyl)-1,2-dihydropyridin-2-one] | < 100 | > 100000 |
